# Test results: patent US10822318B2, “Lactone-based probes and methods of use thereof” (REGENTS OF THE UNIVERSITY OF MINNESOTA, priority 2017, dated 2020)
# Assays:
# [1] = tested on: S. pyogenes; conditions: mice infected with S. pyogenes; cited from earlier work
# [2] = tested on: E. coli; conditions: cited from earlier work
# [3] = tested on: S. pneumoniae IU1945 PBPs; experiment: Competition assays with Boc-FL for S. pneumoniae IU1945 PBPs; assay type: cell-based; conditions: S. pneumoniae IU1945 cells
# Protocol: The protocol for SDS-PAGE gel preparation was previously described (Kocaoglu, O, et al. (2013) Curr Protoc Chem Biol 5, 239). Briefly, polyacrylamide gels were composed of 10% resolving gel (10.5 ml of 1.5 M Tris-HCl buffer pH 8.8, 10.5 ml of acrylamide:bis-acrylamide 29:1 (40% solution), 21 ml of H2O, 140 μl of 10% APS, 15 μl of tetramethylethylenediamine (TEMED)) and 4.5% stacking gel (2.5 ml of 0.5 M Tris-HCl buffer pH 6.8, 1.125 ml of acrylamide:bis-acrylamide 29:1 (40% solution), 6.375 ml of H2O, 30 μl of 10% APS, 10 μl of TEMED). Running parameters were 180 V, 400 mA, and 60 W for 1.5 h. Experiments to examine competition of acyl homoserine lactones or p-toluenesulfonic acid salts of the β-lactones with Boc-FL were performed with acrylamide:bis-acrylamide ratio of 37.5:1.
# Cells from 1.5 ml of culture were harvested by centrifugation (16,100×g for 2 min at RT) and washed with 1 ml of PBS, pH 7.4. Cell pellets were resuspended in 50 μl of PBS containing 5, 10, and 20 μg/ml of β-lactone p-toluenesulfonic salts and incubated for 40 min at RT. Cells were pelleted and washed in 1 ml of PBS. Next, the cells were resuspended in 50 μl of PBS containing 5 μg/ml Boc-FL and incubated for 10 min at RT. Finally, the cells were resuspended in 100 μl PBS containing 1 or 10 mg/ml lysozyme and incubated for 30 min at 37° C. […]
# [4] = target: T1, PBP2x (Streptococcus pneumoniae, UniProt P59676); experiment: Methicillin pre-treatment controls, gel-based analysis; assay type: cell-based, S. pneumoniae; conditions: 7FL labeling
# T1 construct: endogenous in cells; host or cells: S. pneumoniae IU1945 and E193 (Δpbp1b)
# T1 sequence (P59676 whole entry): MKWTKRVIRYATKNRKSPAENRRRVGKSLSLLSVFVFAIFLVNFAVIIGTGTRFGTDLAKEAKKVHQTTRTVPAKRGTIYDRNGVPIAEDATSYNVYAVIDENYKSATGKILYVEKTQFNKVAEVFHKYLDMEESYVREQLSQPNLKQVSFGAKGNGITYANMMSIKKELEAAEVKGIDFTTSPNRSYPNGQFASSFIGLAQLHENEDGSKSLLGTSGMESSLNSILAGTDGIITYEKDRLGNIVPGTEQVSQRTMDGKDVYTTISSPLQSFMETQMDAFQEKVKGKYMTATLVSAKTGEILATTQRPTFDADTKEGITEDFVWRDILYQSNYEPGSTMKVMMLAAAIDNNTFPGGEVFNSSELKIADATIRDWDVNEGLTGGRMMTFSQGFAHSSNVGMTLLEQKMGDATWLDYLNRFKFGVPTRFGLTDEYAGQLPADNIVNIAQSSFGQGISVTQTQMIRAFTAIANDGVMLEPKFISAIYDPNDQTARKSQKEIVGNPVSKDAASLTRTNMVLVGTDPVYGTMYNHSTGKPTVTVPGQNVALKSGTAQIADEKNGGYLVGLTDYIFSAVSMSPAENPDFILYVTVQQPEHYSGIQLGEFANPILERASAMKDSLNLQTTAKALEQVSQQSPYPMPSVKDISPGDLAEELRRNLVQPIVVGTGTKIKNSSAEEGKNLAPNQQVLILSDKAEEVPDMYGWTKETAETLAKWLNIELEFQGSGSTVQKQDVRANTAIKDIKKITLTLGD
# Protocol: Cells from 1.5 ml of S. pneumoniae IU1945 and E193 cultures at exponential phase (OD620˜0.2) were harvested by centrifugation (16,100×g for 2 min at RT) and washed with 1 ml of PBS, pH 7.4. Cell pellets were resuspended in 50 μl of PBS containing 0.1 μg/ml of methicillin and incubated for 30 min at RT. Cells were pelleted and washed in 1 ml of PBS. Next, the cells were resuspended in 50 μl of PBS containing 1 or 5 μg/ml of lac-L-Phe-FL or 5 μg/ml Boc-FL (as control) and incubated for 20 min at RT (10 min at RT for Boc-FL). Finally, the cells were resuspended in 100 μl PBS containing 1 or 10 mg/ml lysozyme and incubated for 30 min at 37° C. Cells were lysed and sample preparation for SDS-PAGE gel-based analysis was performed as described.
# [5] = tested on: S. pneumoniae cells; experiment: 3D-SIM imaging of lactone probe labeled cells; assay type: cell-based; conditions: wild-type and Δpbp1b strains, ≈41 cells examined
# Protocol: Cells from an overnight culture were diluted to OD620 0.02 in 2 ml of fresh BHI prewarmed to 37° C. and incubated at 37° C. in an atmosphere of 5% CO2. At OD620 0.2, 1.5 ml of culture was added to a microfuge tube and centrifuged at room temperature for 5 min at 16000×g. The supernatant was discarded, the pellet was resuspended in 1 ml room temperature PBS, and the culture was centrifuged a second time. The supernatant was discarded and the pellet was resuspended in either 50 μl of PBS with 5 μg mL^−1 7FL or 100 μl PBS with 5 μg mL^−1 8T. The cells were incubated for 20 min at room temperature in the dark. After incubation the cells were spun and washed with 1 ml of PBS (7FL) or 1 ml of PBS containing 50 mM glucose (8T). The cells were spun a second time and washed with 200 μl of PBS (7FL) or 200 μl of PBS with 50 mM glucose (8T), and finally spun a third time and resuspended in 100 μl of cold (4° C.) GTE buffer (50 mM glucose, 20 mM Tris pH 7.5, 1 mM EDTA). The cells were spun down at 4° C., the supernatant was discarded, and the pellet was resuspended in 15 μl of Vectashield Hardest Antifade (Vector Labs) and kept on ice. 1.2 μl of cells in antifade was pipetted onto a clean coverslip, applied to a slide, and imaged via 3D-SIM. 3D-SIM was performed using the OMX 3D-SIM super-resolution system located in the Indiana University Bloomington Light Microscopy Imaging Center (www.indiana.edu/˜lmic/microscopes/index.html#OMX). The system used is equipped with four Photometrics Cascade II EMCCD cameras that allow simultaneous imaging of up to four colors, and is controlled by DV-OMX software, with image processing by Applied Precision softWoRx 6.0.0 software. Exposure times and % T settings for DAPI, Alexa 488, and Alexa 568 images were 5 ms and 100% for all three channels.
# For pre-treatment with methicillin followed by lactone probe labeling, duplicate 2 ml cultures of each strain were created and incubated as described above. At OD620 0.12, methicillin was added to a final concentration of 0.1 μg mL^−1 to one culture for each strain, and the strains were placed back in the incubator. After 20 min, all cultures were harvested, labeled, and imaged as described above.
# For labeling of cells with both lactone probes, the following changes were made: After a 20 min incubation with 7FL, the cells were spun down and washed once in 1 ml of PBS. The cells were spun again and resuspended in 100 μl of 8T in PBS at 5 μg mL^−1. The cells were incubated for 20 min at room temperature in the dark, and then washed and imaged as described above for 8T labeling.
# [6] = tested on: PBP1b; conditions: cited from earlier work
# [7] = tested on: PBP3; conditions: cited from earlier work
molecule,measurement,setting,value
"O=C(N[C@@H]1C(=O)O[C@@H]1Cc1ccc([N+](=O)[O-])cc1)c1cccc(O)c1O [Obafluorin, obafluorin]",protection of infected mice,[1],provides protection
same,effect on cell morphology,[2],causes cell elongation
"CC(=O)N[C@@H]1C(=O)O[C@@H]1C [SQ 26,517]",PBP inhibition (competition with Boc-FL),[3],very weak inhibitor of PBP2a
"COc1cccc(OC)c1C(=O)N[C@@H]1C(=O)N2[C@@H]1SC(C)(C)[C@@H]2C(=O)O [methicillin, reference compound]",PBP2x labeling following methicillin treatment,[4],dramatically decreased
same,methicillin-treated late division cells displaying empty septal rings,[5]; labeled with 7FL,> 98%
same,methicillin-treated late divisional cells showing empty septal rings,[5]; labeled with 8T,> 98%
[^3H]benzylpenicillin,deacylation rate,[6],5.6e-05 s⁻¹
same,deacylation rate,[7],5.7e-05 s⁻¹
